Measurements taken from paper PMC3444674 (Bioorganic & medicinal chemistry, 2012).

What was measured:
Format in all cases: biochemical
human DDAH-1 [1] = target: T1, human DDAH-1 (Homo sapiens, UniProt O94760); experiment: Time-dependent inactivation of human DDAH-1
human DDAH-1 [2] = target: T1, human DDAH-1; experiment: Reversibility upon dilution into excess substrate; conditions: enzyme-inhibitor mixture diluted into excess substrate
human DDAH-1 [3] = target: T1, human DDAH-1; experiment: Concentration-response and mode-of-inhibition assays for IC50 and Ki; conditions: for Hill Coefficient: concentration-response plot, substrate 50 µM; for Mode of inhibition: varying substrate and inhibitor, large effect on KM, not on kcat
[4] = target: T2, P. aeruginosa isoform of DDAH (Pseudomonas aeruginosa, UniProt Q9I4E3); experiment: Inhibition of P. aeruginosa DDAH by reversible inhibitors; conditions: at concentrations up to 1 mM
T2 sequence (Q9I4E3 1-254): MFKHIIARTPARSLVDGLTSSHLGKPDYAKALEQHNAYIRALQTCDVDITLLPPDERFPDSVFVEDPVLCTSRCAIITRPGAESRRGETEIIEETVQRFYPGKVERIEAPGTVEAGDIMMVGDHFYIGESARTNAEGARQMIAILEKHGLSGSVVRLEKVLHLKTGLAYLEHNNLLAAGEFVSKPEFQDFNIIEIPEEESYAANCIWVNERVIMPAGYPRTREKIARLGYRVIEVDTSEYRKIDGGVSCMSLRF

T1 sequence (O94760 whole entry): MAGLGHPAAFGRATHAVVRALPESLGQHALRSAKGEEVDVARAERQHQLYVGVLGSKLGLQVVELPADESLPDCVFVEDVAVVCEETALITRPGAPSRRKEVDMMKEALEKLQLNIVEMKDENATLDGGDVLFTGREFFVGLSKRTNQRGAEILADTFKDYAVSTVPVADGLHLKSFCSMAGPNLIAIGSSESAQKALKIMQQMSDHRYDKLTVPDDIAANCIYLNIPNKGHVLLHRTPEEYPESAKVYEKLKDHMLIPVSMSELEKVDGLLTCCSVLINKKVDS

Row | SMILES | kinact/KI (human DDAH-1 [1]) [M⁻¹ s⁻¹] | Reversibility of inhibition (human DDAH-1 [2]) | Hill Coefficient (human DDAH-1 [3]) | Mode of inhibition (human DDAH-1 [3]) | Inhibition of P. aeruginosa DDAH [4] | Ligand Efficiency (human DDAH-1 [3]; calculated from experimental Ki values)
1 | Cc1cc(Br)ccn1 [Compound 10, 2-methyl-4-bromopyridine] | ~0.05 | – | – | – | – | –
2 | OCc1cc(Cl)ccn1 [Compound 11, 2-hydroxymethyl-4-chloropyridine] | ~0.04 | – | – | – | – | –
3 | CCc1nc2ccccc2[nH]1 [Compound 12, 2-ethyl-benzimidazole] | – | full activity was rapidly regained | 1.5 ± 0.2 | competitive | did not show any inhibition | –
4 | NCCSc1nc2ccccc2o1 [Compound 13, 2-(1,3-benzoxazol-2-ylthio)ethanamine] | – | full activity was rapidly regained | 1.0 ± 0.3 | competitive | – | 0.3 kcal / mol / heavy (non-hydrogen) atom
